Source: US20240239818A1, “COMPOUNDS AND COMPOSITIONS COMPRISING FLUOROPHORES FOR USE IN VISUALIZATION AND PURIFICATION OR MANIPULATION” (priority 2022, published 2024)
Read-outs that look alike come from different tables or passages of the source.

What was measured:
[1] = Determination of lactone-zwitterion equilibrium constant (KL-Z); format: physicochemical; conditions: 1:1 (v/v) dioxane:water
Description: Determination of KL-Z. The lactone-zwitterion equilibrium constant (KL-Z) was calculated as described previously^13, 23, 32, 45 using equation 1: […]
where εdw is the extinction coefficient of the dyes in a 1:1 (v/v) dioxane:water solvent mixture containing 0.01% (v/v) triethylamine; this dioxane water mixture was chosen to give a large range of KL-Z values,^23 and the triethylamine additive ensures the rhodamines are in the net neutral form. The εmax is the maximal extinction coefficient, measured in 0.1% (v/v) trifluoroacetic acid in 2,2,2-trifluoroethanol (TFE).

[2] = format: physicochemical
Description: Determination of logD7.4. The log of distribution coefficients at pH 7.4 was determined in octanol-phosphate-buffered saline (PBS) using the miniaturized shake flask setup described previously.^36, 47 Briefly, 150 mL each of octanol and PBS pH 7.4 were stirred vigorously for 12-16 h. The layers were allowed to stand for at least 24 h for phase separation. The separated layers were collected and served as PBS saturated with octanol (PBS*) and octanol saturated with PBS (octanol*). Stock solutions (1 mM or 5 mM) of ligands were prepared in DMSO and diluted in PBS* to obtain 1 μM or 10 μM (3-5 mL) of the standard (std). This standard was used to prepare appropriate dilutions using octanol*, in triplicate, in 2-mL glass vials. The leftover standard was used to determine the standard concentration (Cstd). The vials were vortexed for 1 min and shaken horizontally at 700 rpm for 2 h. The vials were then shaken upright at 150 rpm for 2 h to allow the phases to separate. The octanol* layer was pipetted out, and the PBS* layer was used for further analyses. The concentrations of ligands in the standard and PBS* (CPBS*) were determined via fluorescence measurements of 200 μL of PBS* or std in 96-well plates on the Cytation 5 Multimode Plate Reader (BioTek). For Si-rhodamine containing ligands, 2-20 μL of trifluoroacetic acid was added to each well of the 96-well plate prior to the fluorescence measurements. Reported values are averages of at least two measurements. The logD7.4 was obtained as described previously using equation 2:
[formula] • where Cstd is the standard concentration in PBS, CPBS* is the concentration in PBS after partitioning, r is the dilution factor of the standard solution, VPBS* is the volume of PBS used in the partitioning, and Voctanol* is the volume of octanol used in the partitioning.

[3] = target: T1, msGFP-HaloTag® fusion localized to the mitochondrial outer membrane (Rhodococcus rhodochrous, UniProt P0A3G2, A155T/A167V/A172T/A224E/C128F/C176G/D78G/E160K/E257K/H272N/K175M/K195N/L47V/L88M/N227D/S58T/T264A/Y273L/Y87F); assay: HEK293T labeling and fluorescence microscopy; format: cell-based; conditions: live HEK293T cells, nanomolar concentration (100 nM, 1 h)
T1 construct: expressed in transfected cells; host or cells: HEK293T, calcium phosphate transfection
Text: Plasmid construction. HaloTag®, amplified from the pHTC HaloTag® CMV-neo Vector (Promega; G7711) and monomeric-superfolder green fluorescent protein (msGFP; lab stock), was fused to the mitochondrial targeting signal from OMP25,^28 interspacing flexible GS(GSS)4 linkers between each domain by PCR Splicing by Overlap Extension (SOE). This construct was subcloned into hSynapsin promoter bearing a copy of FUGW.^29 FUGW was a gift from David Baltimore (Addgene plasmid #14883; RRID: Addgene_14883).^48 This construct was designated as pF(UG) hSyn HaloTag®-TEV-4×GS-msGFP-mito.
HEK293T cell culture. HEK293T cells (ATCC) were passaged before 80% confluency by trypsinization (Corning; 25-053-CI) and trituration. The cell suspension was then plated on glass coverslips (Warner instruments; 64-0734, CS-18R17) coated with poly-D-lysine (Thermofisher; ICN10269491) and cultured in Dulbecco's Modified Eagle Medium (DMEM; ThermoFisher; 11965-118) supplemented with 10% v/v fetal bovine serum (FBS, Atlanta Biological) and penicillin/streptomycin (pen/strep; ThermoFisher; MT-30-001-CI) at 37° C. in a humidified 5% v/v CO2 environment following ATCC guidelines. These HEK293T cells were tested for mycoplasma contamination using the Universal Mycoplasma Detection Kit (ATCC; 30-1012K) and validated using Short Tandem Repeat profiling by ATCC (ATCC; 135-XV) within the previous year.
HEK293T labeling and fluorescence microscopy. […] For pulse-chase experiments, HEK293T cells were incubated with biotin-HaloTag® ligand (6; #G8281, Promega) at either 100 nM or 10 μM for 1 hour at 37° C. and chased with 100 nM of JANELIA FLUOR® (JF)549-HaloTag® ligand (2HTL). […] For imaging, the coverslips containing HEK293T cells were fixed with 4% paraformaldehyde in PBS at 37° C. for 10 min, washed with PBS (3×), and mounted on glass slides with ProLong Glass Antifade Mountant with NucBlue™ Stain (ThermoFisher; P36981). These cells were imaged using a Zeiss LSM 880 with Airyscan and a plan-apochromatic 63×/1.40 oil objective in Fast Airyscan mode. The same image acquisition settings were used for each trial and condition. Images were then processed with automatic Airyscan deconvolution settings.

[4] = 1:1 (v/v) dioxane-water; parent JF dyes; cited from earlier work
[5] = 1-Photon spectroscopy and quantum yield of HaloTag® ligands; format: physicochemical; conditions: free ligand, 10 mM HEPES pH 7.3
Description: 1-Photon spectroscopy of HaloTag® ligands and HaloTag® conjugates. […] All measurements were taken at ambient temperature (22 ±2° C.). Absorption spectra were recorded on a Cary Model 100 spectrometer (Agilent) using 1-cm path length 1.0-mL quartz microcuvettes from Starna Cells. Fluorescence spectra were recorded on a Cary Eclipse fluorometer (Varian) using 1-cm path length 3.5-mL quartz cuvettes (Starna Cells). As before,^13, 23, 32, 45 HaloTag® protein was used as a 100 μM solution in 1×TBS. HaloTag® ligands 12-15 (5 μM) were dissolved in 10 mM HEPES, pH 7.3, containing 0.1 mg/mL CHAPS. An aliquot of HaloTag® protein (1.5 equiv) was added, and the resulting mixture was incubated until a consistent absorbance signal was observed (60-120 min). To measure the fold-increase of absorbance upon HaloTag® binding, a “no HaloTag®” control experiment was performed where an equivalent volume of TBS blank was added in place of the protein. Reported values for extinction coefficient (ε) are averages of at least two measurements.
Quantum yield determination. All reported absolute fluorescence quantum yield values (Φf) were measured in the laboratory under identical conditions using a Quantaurus-QY spectrometer (model C11374, Hamamatsu). This instrument uses an integrating sphere to determine photons absorbed and emitted by a sample. Measurements were performed using dilute samples (absorbance<0.1), and self-absorption corrections were performed using the instrument software.^46 Reported values are averages of at least two measurements.

[6] = test system: HaloTag®-histone H2B fusion protein; format: cell-based; conditions: 200 nM, live U2OS cells expressing HaloTag®-H2B, 0-4 h
Description: Dye loading kinetics. Live U2OS.H2B.HaloTag® stable cells were labeled over a time course of 0-4 h with 200 nM of biotin-JF549-HaloTag® ligand (12), biotin-JF608-HaloTag® ligand (13), biotin-JF646-HaloTag® ligand (14), or biotin-JF635-HaloTag® ligand (15) at 37° C. Cells were then washed 3× with dye-free media, fixed with 4% paraformaldehyde in 0.1 M phosphate buffer, pH 7.4 for 15 min at 37° C. Confocal imaging was performed on a Leica SP8 with an HC PL APO CS2 20×/0.75 immersion objective using the tunable white light laser (WLL) to excite dyes at their λabs in constant power mode. Fluorescence was quantified as the average integrated density of background corrected nuclear signals from confocal image stack projections analyzed in FIJI; n=100 nuclear signals per compound.

T1 sequence (P0A3G2 other isoform, or with tags, fused parts or gaps with the stated changes): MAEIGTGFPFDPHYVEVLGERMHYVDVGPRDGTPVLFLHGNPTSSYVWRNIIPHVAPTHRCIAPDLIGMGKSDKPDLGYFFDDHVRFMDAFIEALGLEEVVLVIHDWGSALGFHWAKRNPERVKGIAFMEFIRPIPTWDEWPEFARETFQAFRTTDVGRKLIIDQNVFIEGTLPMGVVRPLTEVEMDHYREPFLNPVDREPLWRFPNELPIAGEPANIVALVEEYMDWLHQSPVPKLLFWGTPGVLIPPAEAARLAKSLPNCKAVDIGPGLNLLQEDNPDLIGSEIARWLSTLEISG

SMILES | logD7.4 ([2]; pH 7.4) | logD7.4 ([2]; octanol-PBS pH 7.4) | KL-Z [1] | KL-Z [4] | other results
O=C(NCCOCCOCCCCCCCl)c1ccc2c(c1)C1(OC2=O)c2ccc(N3CCC3)cc2Oc2cc(N3CCC3)ccc21 [2HTL, JF549-HaloTag® ligand, reference compound] | 0.82 |  | 5.2 |  | labeling of mitochondria-localized HaloTag®-msGFP fusion [3]: labeled the mitochondria-localized HaloTag®-msGFP fusions
CC1(C)c2cc(N3CCC3)ccc2C2(OC(=O)c3ccc(C(=O)NCCOCCOCCCCCCCl)cc32)c2ccc(N3CCC3)cc21 [3HTL, reference compound] |  | 3.55 | 0.33 |  | 
C[Si]1(C)c2cc(N3CCC3)ccc2C2(OC(=O)c3ccc(C(=O)NCCOCCOCCCCCCCl)cc32)c2ccc(N3CCC3)cc21 [4HTL, JF646-HaloTag® ligand, reference compound] |  | 3.59 | 0.010 |  | labeling of mitochondria-localized HaloTag®-msGFP fusion [3]: labeled the mitochondria in live cells
O=C1OC2(c3ccc(N4CCC4)cc3Oc3cc(N4CCC4)ccc32)c2ccccc21 [compound 2, Janelia Fluor 549] | 0.98 |  |  | 3.5 | 
CC1(C)c2cc(N3CCC3)ccc2C2(OC(=O)c3ccccc32)c2ccc(N3CCC3)cc21 [compound 3, JF608] |  | 3.78 |  | 0.091 | 
C[Si]1(C)c2cc(N3CCC3)ccc2C2(OC(=O)c3ccccc32)c2ccc(N3CCC3)cc21 [compound 4, JF646] |  | 3.98 |  | 0.0014 | 

Further lines, with some results ahead:

logD7.4 ([2]; pH 7.4) | logD7.4 ([2]; octanol-PBS pH 7.4) | SMILES | KL-Z [1] | KL-Z [4] | other results
 | 4.1 | C[Si]1(C)c2cc(N3CC(F)C3)ccc2C2(OC(=O)c3ccccc32)c2ccc(N3CC(F)C3)cc21 [compound 5, JF635] |  | 0.0001 | 
2.63 |  | CC1(C)C2=CC(=[N+]3CC(C(=O)NCCOCCOCCNC(=O)CCCC[C@@H]4SC[C@@H]5NC(=O)N[C@@H]54)C3)C=CC2=C(c2cc(C(=O)NCCOCCOCCCCCCCl)ccc2C(=O)[O-])c2ccc(N3CCC3)cc21 (some centres unmarked) [compound 13, Biotin-JF608-HaloTag® ligand] | 0.17 |  | extinction coefficient (ε) [5]: 92,300 M^−1cm^−1; fluorescence quantum yield (Φf) [5]: 0.65; λabs [5]: 610 nm; λem [5]: 634 nm; time to reach saturation of labeling [6]: 4 h
